The target in test [1] is protein-protein interaction between Kras and SOS1 (biotin-tagged human Kras loaded with GDP, His-tagged human SOS1) (Homo sapiens (Human), UniProt P01116, G12D). Kind of test: Protein-protein interaction inhibition between Kras and SOS1 (KrasG12D-SOS PPI) using AlphaScreen.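 Note: kras produced in E. coli, Ni-coupled donor beads and streptavidin acceptor beads, excitation 680 nm with emission detected at 520–620 nm via singlet oxygen transfer.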 The test is classed as biochemical. As to conditions: AlphaScreen; biotin-tagged human Kras loaded with GDP, His-tagged human SOS1; read-out: KRAS G12D-SOS PPI IC50. (In general: In Alpha technology, singlet oxygen from a donor bead excites a nearby acceptor bead.)

For test [2], the system named is Human pancreatic cancer cell line AsPC-1 (G12D mutation Kras). Kind of test: AsPC-1 cell growth inhibition (AsPC-1 CGI). As to conditions: read-out: AsPC-1 cell growth inhibition, 50% growth inhibitory concentration (IC50 value); 96 hours, CellTiter-Glo, values classified in ranges. The class given is cell-based. For orientation: ATP-based viability assays read luminescence as a measure of living cells.
Protocol: Test compounds were serially dilated with dimethyl sulfoxide, and 200 nL was then dispensed to a U-bottom 96-well plate using Labcyte Echo. […] The cell suspension was dispensed to a. plate containing a test compound at 100 μL per well and incubated at 37° C. in a 5% carbon dioxide gas incubator. 96 hours later, 80 μL of CellTiter-Glo (Promega) was added to each well and fluorescence was measured.

Numbered stars: 1 amine (or outer) side, 2 acyl side, 3 side chain; on linkers, the order of the positions; unused ones are H or OH. Bridge positions count the residues as written; N and C are the ends. Square brackets hold non-standard residues; d marks the D form. Peptide text beside a SMILES is read from it. * marks the point of attachment. hPhe(3,5-F2-4-CF3) = N[C@@H](CCc1cc(F)c(C(F)(F)F)c(F)c1)C(=O)O; hPhe(3-Cl-4-CF3) = N[C@@H](CCc1ccc(C(F)(F)F)c(Cl)c1)C(=O)O; hPhe(3-F,4-CF3) = N[C@@H](CCc1ccc(C(F)(F)F)c(F)c1)C(=O)O; NEtPhe(4-CF3) = CCN[C@@H](Cc1ccc(C(F)(F)F)cc1)C(=O)O; X7 = O=C([C@@H]1C[C@H](N2CCC(F)(F)CC2)CN1[*:1])[*:2]; NMePhe(4-CF3) = CN[C@@H](Cc1ccc(C(F)(F)F)cc1)C(=O)O; NEtPhe(4-Me) = CCN[C@@H](Cc1ccc(C)cc1)C(=O)O; NMePhe(4-Cl) = CN[C@@H](Cc1ccc(Cl)cc1)C(=O)O; NMePhe(4-Me) = CN[C@@H](Cc1ccc(C)cc1)C(=O)O; NMedβ3hAla = C[C@H](CC(=O)[*:2])N(C)[*:1]; NMePhe(2-F) = CN[C@@H](Cc1ccccc1F)C(=O)O; NMeGly(cPent) = CN[C@H](C(=O)O)C1CCCC1; NMe3Pal = CN[C@@H](Cc1cccnc1)C(=O)O; NMeCha = CN[C@@H](CC1CCCCC1)C(=O)O; Hyp = O=C(O)[C@@H]1C[C@@H](O)CN1; NMeAhp(2) = CCCCC[C@H](NC)C(=O)O; NMeI = CC[C@H](C)[C@H](NC)C(=O)O; NMeD = CN[C@@H](CC(=O)O)C(=O)O; NMeL = CN[C@@H](CC(C)C)C(=O)O; NMeV = CN[C@H](C(=O)O)C(C)C; d(β3hA) = C[C@@H](N)CC(=O)O; Azetidin(1-yl) = C1CN(*)C1; NMeS = CN[C@@H](CO)C(=O)O; NMeA = CN[C@@H](C)C(=O)O; NMeAib = CNC(C)(C)C(=O)O; Piperidide = C1CCN(*)CC1; Pyrrolidide = C1CCN(*)C1; Ac5c = NC1(C(=O)O)CCCC1; Aze = O=C(O)[C@@H]1CCN1; Isopentyl = CC(C)CC*; Sar = CNCC(=O)O

As to `CC(C)C[C@H]1C(=O)N[C@@H]([C@@H](C)O)C(=O)N(C)[C@@H](C)C(=O)N2CC[C@H]2C(=O)N(C)[C@@H](CC2CCCCC2)C(=O)N(C)CC(=O)N[C@@H](CCc2ccc(C(F)(F)F)c(Cl)c2)C(=O)N2CCC[C@H]2C(=O)NC2(CCCC2)C(=O)N(C)[C@@H](C(C)C)C(=O)N(C)[C@H](C(=O)N2CCCCC2)CC(=O)N1C` [Compound 450] ([NMeL]T[NMeA][Aze][NMeCha][Sar][hPhe(3-Cl-4-CF3)]P[Ac5c][NMeV][NMeD]-Piperidide; lactam N-11), the IC50 was 6.6 nM in test [1] and > 500 nM in test [2].

Regarding `CC[C@H](C)[C@@H]1NC(=O)[C@H](C)N(C)C(=O)C[C@@H](C(=O)N2CCCCC2)N(C)C(=O)[C@H](C(C)C)N(C)C(=O)C2(CCCC2)NC(=O)[C@@H]2C[C@H](N3CCC(F)(F)CC3)CN2C(=O)[C@H](CCc2ccc(C(F)(F)F)c(Cl)c2)NC(=O)CN(C)C(=O)[C@H](CC2CCCCC2)N(C)C(=O)CN(C)C(=O)CN(C)C1=O` [Compound 460] ([NMeA]I[Sar][Sar][NMeCha][Sar][hPhe(3-Cl-4-CF3)][X7][Ac5c][NMeV][NMeD]-Piperidide; lactam N-11), the IC50 in test [1] is 1 nM; in test [2], > 500 nM.

With `CCO[C@@H]1C[C@H]2C(=O)NC3(CCCC3)C(=O)N(C)[C@@H](C3CCCC3)C(=O)N(C)[C@H](C)CC(=O)N(C)[C@@H](CC(C)C)C(=O)N[C@@H]([C@@H](C)CC)C(=O)N(C)[C@@H](C)C(=O)N3CC[C@H]3C(=O)N(CC)[C@@H](Cc3ccc(C(F)(F)F)cc3)C(=O)N(C)CC(=O)N[C@@H](CCc3cc(F)c(C(F)(F)F)c(F)c3)C(=O)N2C1` [Compound 466] (cyclo([Ac5c][NMeGly(cPent)][NMedβ3hAla][NMeL]I[NMeA][Aze][NEtPhe(4-CF3)][Sar][hPhe(3,5-F2-4-CF3)][Hyp](Et))), the IC50 was 3.1 nM in test [1] and ≤ 20 nM in test [2].

Regarding `CC[C@H](C)[C@@H]1NC(=O)[C@H](CC(C)C)N(C)C(=O)C[C@@H](C)N(C)C(=O)[C@H](CC(C)C)NC(=O)C(C)(C)N(C)C(=O)[C@H](Cc2ccccc2)NC(=O)[C@H](CCc2ccc(C(F)(F)F)c(F)c2)NC(=O)CN(C)C(=O)[C@H](Cc2ccc(Cl)cc2)N(C)C(=O)CN(C)C(=O)CN(C)C1=O` [Compound 471] (cyclo(F[NMeAib]L[NMedβ3hAla][NMeL]I[Sar][Sar][NMePhe(4-Cl)][Sar][hPhe(3-F,4-CF3)])), the figures for the IC50 in test [1] and in test [2] were 58 nM and > 500 nM, respectively.

For the molecule `CC[C@H](C)[C@@H]1NC(=O)[C@H](CC(C)C)N(C)C(=O)C[C@@H](C)N(C)C(=O)[C@H](C2CCCC2)N(C)C(=O)C2(CCCC2)NC(=O)[C@@H]2CCCN2C(=O)[C@H](CCc2ccc(C(F)(F)F)c(F)c2)NC(=O)CN(C)C(=O)[C@H](Cc2ccc(C)cc2)N(C)C(=O)[C@@H]2CCN2C(=O)[C@H](C)N(C)C1=O` [Compound 481] (cyclo([Ac5c][NMeGly(cPent)][NMedβ3hAla][NMeL]I[NMeA][Aze][NMePhe(4-Me)][Sar][hPhe(3-F,4-CF3)]P)), the IC50 was 2 nM in test [1] and ≤ 20 nM in test [2].

With `CC[C@H](C)[C@@H]1NC(=O)[C@H](CC(C)C)N(C)C(=O)C[C@@H](C(=O)N2CCCCC2)N(C)C(=O)[C@H](COC)N(C)C(=O)C2(CCCC2)NC(=O)[C@@H]2CCCN2C(=O)[C@H](CCc2ccc(C(F)(F)F)c(Cl)c2)NC(=O)CN(C)C(=O)[C@H](CC2CCCCC2)N(C)C(=O)[C@@H]2CCN2C(=O)[C@H](C)N(C)C1=O` [Compound 484] ([NMeL]I[NMeA][Aze][NMeCha][Sar][hPhe(3-Cl-4-CF3)]P[Ac5c][NMeS](Me)[NMeD]-Piperidide; lactam N-11), the figures for the IC50 in test [1] and in test [2] were 110 nM and > 500 nM, respectively.

On to `CC(C)CCOC[C@@H]1NC(=O)[C@H](CC(C)C)N(C)C(=O)C[C@@H](C(=O)N2CCCCC2)N(C)C(=O)[C@H](C(C)C)N(C)C(=O)C2(CCCC2)NC(=O)[C@@H]2CCCN2C(=O)[C@H](CCc2ccc(C(F)(F)F)c(Cl)c2)NC(=O)CN(C)C(=O)[C@H](CC2CCCCC2)N(C)C(=O)[C@@H]2CCN2C(=O)[C@H](C)N(C)C1=O` [Compound 485] ([NMeL]S(Isopentyl)[NMeA][Aze][NMeCha][Sar][hPhe(3-Cl-4-CF3)]P[Ac5c][NMeV][NMeD]-Piperidide; lactam N-11), for which the IC50 in test [1] is 160 nM; in test [2], > 500 nM.

In the case of `CC[C@H](C)[C@@H]1NC(=O)[C@H](CC(C)C)N(C)C(=O)C[C@@H](C(=O)N2CCCCC2)N(C)C(=O)[C@H](C(C)C)N(C)C(=O)C2(CCCC2)NC(=O)[C@@H]2CCCN2C(=O)[C@H](CCc2ccc(C(F)(F)F)c(Cl)c2)NC(=O)CN(C)C(=O)[C@H](COC)N(C)C(=O)[C@@H]2CCN2C(=O)[C@H](C)N(C)C1=O` [Compound 487] ([NMeL]I[NMeA][Aze][NMeS](Me)[Sar][hPhe(3-Cl-4-CF3)]P[Ac5c][NMeV][NMeD]-Piperidide; lactam N-11), the results for the IC50 in test [1] and in test [2] were 5.9 nM and > 500 nM, respectively.

Turning to `CC[C@H](C)[C@@H]1NC(=O)[C@H](C)N(C)C(=O)C[C@@H](C)NC(=O)[C@H](C2CCCC2)N(C)C(=O)C2(CCCC2)NC(=O)[C@@H]2CCCN2C(=O)[C@H](CCc2ccc(C(F)(F)F)c(Cl)c2)NC(=O)CN(C)C(=O)[C@H](Cc2cccnc2)N(C)C(=O)[C@@H]2CCCN2C(=O)CN(C)C1=O` [Compound 489] (cyclo([Ac5c][NMeGly(cPent)][d(β3hA)][NMeA]I[Sar]P[NMe3Pal][Sar][hPhe(3-Cl-4-CF3)]P)), the IC50 is 8.1 nM in test [1] and > 500 nM in test [2].

Regarding `CC[C@H](C)[C@@H]1NC(=O)[C@H](C)N(C)C(=O)C[C@@H](C(=O)N2CCCCC2)N(C)C(=O)[C@H](C(C)C)N(C)C(=O)C2(CCCC2)NC(=O)[C@H](Cc2ccccc2F)N(C)C(=O)[C@H](CCc2ccc(C(F)(F)F)c(Cl)c2)NC(=O)CN(C)C(=O)[C@H](CC2CCCCC2)N(C)C(=O)CN(C)C(=O)CN(C)C1=O` [Compound 492] ([NMeA]I[Sar][Sar][NMeCha][Sar][hPhe(3-Cl-4-CF3)][NMePhe(2-F)][Ac5c][NMeV][NMeD]-Piperidide; lactam N-11), the results for the IC50 in test [1] and in test [2] were 12 nM and > 500 nM, respectively.

On to `CC[C@H](C)[C@@H]1NC(=O)[C@H](CC(C)C)N(C)C(=O)C[C@@H](C(=O)N2CCC2)N(C)C(=O)[C@H](C2CCCC2)N(C)C(=O)C2(CCCC2)NC(=O)[C@@H]2CCCN2C(=O)[C@H](CCc2ccc(C(F)(F)F)c(Cl)c2)NC(=O)CN(C)C(=O)[C@H](Cc2ccc(C)cc2)N(CC)C(=O)[C@@H]2CCN2C(=O)[C@H](C)N(C)C1=O` [Compound 506] ([NMeL]I[NMeA][Aze][NEtPhe(4-Me)][Sar][hPhe(3-Cl-4-CF3)]P[Ac5c][NMeGly(cPent)][NMeD]-{Azetidin(1-yl)}; lactam N-11), for which the IC50 in test [1] was 0.68 nM; in test [2], ≤ 20 nM.

On to `CCCCC[C@H]1C(=O)N[C@@H]([C@@H](C)CC)C(=O)N(C)[C@@H](C)C(=O)N2CC[C@H]2C(=O)N(C)[C@@H](Cc2ccc(C(F)(F)F)cc2)C(=O)N(C)CC(=O)N[C@@H](CCc2ccc(C(F)(F)F)c(Cl)c2)C(=O)N2CCC[C@H]2C(=O)NC2(CCCC2)C(=O)N(C)[C@@H]([C@@H](C)CC)C(=O)N(C)[C@H](C(=O)N2CCCC2)CC(=O)N1C` [Compound 509] ([NMeAhp(2)]I[NMeA][Aze][NMePhe(4-CF3)][Sar][hPhe(3-Cl-4-CF3)]P[Ac5c][NMeI][NMeD]-Pyrrolidide; lactam N-11), for which the IC50 in test [1] was 1.3 nM; in test [2] it was ≤ 20 nM.
